In paper PMC10119927, “Compact Rotaxane Superbases” (Journal of the American Chemical Society, 2023):
Values joined by “and” are separate entries in the source; they are usually repeats but may differ in a detail not shown here. Equal entries are not always repeated. “Also recorded” adds a separate entry of the source. Where two headings read alike, the source gives them in different places. Blank lines part the entries; values can stand above or below the compound they belong to.

Experiments:
[1] = Hydrolytic decomposition in 1 M NaOD in 9:1 v/v CD3OD/D2O
[2] = pKaH+ determination by Lambert's method with reference bases (1H NMR); conditions: for pKaH+: Lambert's method
Procedure: The pKaH^+ values shown were determined in CD3CN using Lambert’s method[8] with appropriate reference bases (see Supporting Information, Section 2.0).

[3] = Base-mediated elimination of HBr from 4-bromophenethyl bromide: deprotonation kinetics and protonation vs alkylation; conditions: for Half-life, t1/2: calculated based on second-order kinetics; for half-life (h) (25 °C) / half-life (h) (80 °C): deprotonation of 4-bromophenethyl bromide
[4] = cited from earlier work
[5] = hydrolytic decomposition, 1 M NaOD, 9:1 CD3OD/D2O, 25 °C
[6] = hydrolytic decomposition, 1 M NaOD, 9:1 CD3OD/D2O, 80 °C
[7] = Table 1, conventional superbases
[8] = Table S1, conventional superbases
[9] = 80 °C, 1 M NaOD in 9:1 d4-methanol:D2O, pseudo-first-order
[10] = 25 °C, 1 M NaOD in 9:1 d4-methanol:D2O, pseudo-first-order

Compound: CN(C)P(=NC(C)(C)C)(N(C)C)N(C)C [P1-^tBu, tert-butylimino-tris(dimethylamino)phosphorane, reference compound]
pKaH+ (MeCN) [4, 7]: 27.0[1] | pKaH+ (MeCN) [4, 8]: 27 | pKaH+ (MeCN) ([4]; Table S2, reference superbases): 27.0 | Half-life [1, 9]: > 170 h | half-life (25 °C) [1, 5]: >170 h | half-life (80 °C) [1, 6]: >170 h | Half-life, t1/2 ([3]; 25 °C): 17.45 days | half-life (h) (25 °C) ([3]; 25 °C): 419 h

Compound: F[P-](F)(F)(F)(F)F.O=C(CC[NH2+]Cc1cc(C(F)(F)F)cc(C(F)(F)F)c1)Nc1cc(C(F)(F)F)cc(C(F)(F)F)c1.c1ccc2c(c1)OCCOCCOCCOc1ccccc1OCCOCCOCCO2 [DB24C8⊂8•HPF6]
Half-life [1, 9]: > 170 h | pKaH+ (MeCN) ([2]; Table S2, rotaxane HPF6 salts): 20.7

Compound: NCCCCN [1,4-diaminobutane]
pKaH+ ([4]; in CD3CN, reference base): 20.1

Compound: FC(F)(F)c1cc(C[NH2+]Cc2cc(C(F)(F)F)cc(C(F)(F)F)c2)cc(C(F)(F)F)c1.F[P-](F)(F)(F)(F)F.c1ccc2c(c1)OCCOCCOCCOc1ccccc1OCCOCCOCCO2 [DB24C8⊂3•HPF6]
Half-life [1, 9]: > 170 h | pKaH+ (MeCN) ([2]; Table S2, rotaxane HPF6 salts): 20.3

Compound: CN(C)c1cccc2cccc(N(C)C)c12 [proton-sponge]
pKaH+ ([4]; in MeCN): 18.6

Compound: C1CCC2=NCCCN2CC1 [DBU, 1,8-diazabicyclo(5.4.0)undec-7-ene, reference compound]
pKaH+ (MeCN) [4, 7]: 24.3[1] | pKaH+ (MeCN) [4, 8]: 24.3 | pKaH+ (MeCN) ([4]; Table S2, reference superbases): 24.3 | Half-life ([1]; buffer, Half-life, 25 °C, 1 M NaOD in 9:1 d4-methanol:D2O, pseudo-first-order): 10.9 h | Half-life ([1]; buffer, half-life (25 °C), hydrolytic decomposition, 1 M NaOD, 9:1 CD3OD/D2O, 25 °C): 11 h | Half-life, t1/2 ([3]; 25 °C): 26.47 days | half-life (h) (25 °C) ([3]; 25 °C): 635 h

Compound: C1COCCOCCOCCOCCOCCOCCO1.Cc1cc(C)cc(C[NH2+]Cc2cc(C)cc(C)c2)c1.F[P-](F)(F)(F)(F)F [21C7⊂6•HPF6]
Half-life [1, 9]: > 170 h | pKaH+ (MeCN) ([2]; Table S2, rotaxane HPF6 salts): 32.2

More lines, main results first:

hydrolytic stability (in words) ([1]; 1 M NaOD, 9:1 CD3OD/D2O): stable | half-life (25 °C) [1, 5]: >170 h | half-life (80 °C) [1, 6]: >170 h | pKaH+ (MeCN) ([2]; Table 1, rotaxanes): 20.5 | pKaH+ ([2]; in CD3CN): 20.5 ± 0.1 | Half-life, t1/2 ([3]; 25 °C): 7.317 days | half-life (h) (25 °C) ([3]; 25 °C): 176 h
Compound: C1COCCOCCOCCOCCOCCOCCOCCO1.FC(F)(F)c1cc(CNCc2cc(C(F)(F)F)cc(C(F)(F)F)c2)cc(C(F)(F)F)c1 [24C8⊂3]

pKaH+ ([2]; in CD3CN): 23.2 ± 0.3 and 23.2 ± 0.2
Compound: C1COCCOCCOCCOCCOCCOCCOCCO1.COc1c(C(C)(C)C)cc(CNCc2cc(C(F)(F)F)cc(C(F)(F)F)c2)cc1C(C)(C)C [24C8⊂5]

pKaH+ ([2]; in CD3CN): 22.9 ± 0.3 and 22.9 ± 0.1
Compound: C1COCCOCCOCCOCCOCCOCCOCCO1.CC(C)(C)c1cc(CNCc2cc(C(F)(F)F)cc(C(F)(F)F)c2)cc(C(C)(C)C)c1 [24C8⊂4]

half-life (25 °C) [1, 5]: >170 h | half-life (80 °C) [1, 6]: >170 h | pKaH+ (MeCN) ([2]; Table 1, rotaxanes): 32.2 | basicity higher than either non-interlocked component ([2]; in CD3CN): ~13 orders of magnitude | pKaH+ ([2]; in CD3CN): 32.2 ± 0.6 | Half-life, t1/2 ([3]; 25 °C): 0.00625 days | half-life (h) (25 °C) ([3]; 25 °C): 0.15 h
Compound: C1COCCOCCOCCOCCOCCOCCO1.Cc1cc(C)cc(CNCc2cc(C)cc(C)c2)c1 [21C7⊂6]
hydrolytic stability (in words) ([1]; 1 M NaOD, 9:1 CD3OD/D2O): stable; also recorded: excellent chemical stability | rate of deprotonation of 4-bromophenethyl bromide relative to the conventional organic superbases ([3]; in words): several thousand times faster

hydrolytic stability (in words) ([1]; 1 M NaOD, 9:1 CD3OD/D2O): decompose quickly | half-life (25 °C) [1, 5]: 6 h | pKaH+ (MeCN) ([2]; Table 1, rotaxanes): 26.3 | pKaH+ ([2]; in CD3CN): 26.3 ± 0.22 and 26.3 ± 0.2 | Half-life, t1/2 ([3]; 80 °C): 10.8 days | half-life (h) (25 °C) ([3]; 25 °C): >5000 h | half-life (h) (80 °C) ([3]; 80 °C): 260 h
Compound: C1COCCOCCOCCOCCOCCOCCOCCO1.CC(C)(C)c1cc(CNCc2cc(C(C)(C)C)cc(C(C)(C)C)c2)cc(C(C)(C)C)c1 [24C8⊂2]
rate of substrate deprotonation relative to the other rotaxanes in the series ([3]; in words): much more slowly

half-life (25 °C) [1, 5]: <0.083 h | pKaH+ (MeCN) ([2]; Table 1, rotaxanes): 24.9 | pKaH+ ([2]; in CD3CN): 24.9 ± 0.1 | increase in the basicity of the secondary amine upon encapsulation ([2]; rotaxane vs thread 3, from pKaH+ values): 10^13 fold | Half-life, t1/2 ([3]; 80 °C): 169.69 days | half-life (h) (25 °C) ([3]; 25 °C): >5000 h | half-life (h) (80 °C) ([3]; 80 °C): 4073 h
Compound: C1COCCOCCOCCOCCOCCOCCO1.FC(F)(F)c1cc(CNCc2cc(C(F)(F)F)cc(C(F)(F)F)c2)cc(C(F)(F)F)c1 [21C7⊂3]
hydrolytic stability (in words) ([1]; 1 M NaOD, 9:1 CD3OD/D2O): consumed completely within a matter of minutes; also recorded: decompose quickly | rate of substrate deprotonation relative to the other rotaxanes in the series ([3]; in words): much more slowly

Half-life [1, 9]: > 170 h | pKaH+ (MeCN) ([2]; Table S2, rotaxane HPF6 salts): 20.5
Compound: C1COCCOCCOCCOCCOCCOCCOCCO1.FC(F)(F)c1cc(C[NH2+]Cc2cc(C(F)(F)F)cc(C(F)(F)F)c2)cc(C(F)(F)F)c1.F[P-](F)(F)(F)(F)F [24C8⊂3•HPF6]

Half-life [1, 10]: 6.2 h | pKaH+ (MeCN) ([2]; Table S2, rotaxane HPF6 salts): 26.3
Compound: C1COCCOCCOCCOCCOCCOCCOCCO1.CC(C)(C)c1cc(C[NH2+]Cc2cc(C(C)(C)C)cc(C(C)(C)C)c2)cc(C(C)(C)C)c1.F[P-](F)(F)(F)(F)F [24C8⊂2•HPF6]

Half-life [1, 10]: < 0.083 h | pKaH+ (MeCN) ([2]; Table S2, rotaxane HPF6 salts): 24.9
Compound: C1COCCOCCOCCOCCOCCOCCO1.FC(F)(F)c1cc(C[NH2+]Cc2cc(C(F)(F)F)cc(C(F)(F)F)c2)cc(C(F)(F)F)c1.F[P-](F)(F)(F)(F)F [21C7⊂3•HPF6]
